We go through 17 compounds from patent US8889688B2, “Piperazines as antimalarial agents” (Actelion Pharmaceuticals Ltd., priority 2011, dated 2014).

The subject of experiment [1] is P. berghei strain GFP-ANKA. The experiment in a line: In vivo antimalarial efficacy study in infected NMRI mice. Particulars: Plasmodium berghei; female NMRI mice infected with P. berghei GFP-ANKA; single oral dose of 100 mg/kg 24 h after infection; parasitemia 48 h after drug treatment (day 3); read-out: Activity (inhibition of parasitemia) expressed as a percent relative to the control group. The protocol:
In Vivo Antimalarial Efficacy Studies
In vivo antimalarial activity is assessed for groups of three female NMRI mice (20-22 g) intravenously infected on day 0 with P. berghei strain GFP-ANKA (0.2 mL heparinized saline suspension containing 2×10^7 parasitized erythrocytes). In control mice, parasitemia typically rises to approximately 40% by day 3 after infection. Compounds are formulated in Tween 80/ethanol (7%/3%) usually at concentrations of 10 mg/mL. Compounds are administered in a volume of 10 mL/kg orally as single doses (1×100 mg/kg, 24 h after infection). 48 h after drug treatment (day 3 post-infection), 1 μl tail blood is taken, resuspended in 1 mL PBS buffer and parasitemia determined with a FACScan (Becton Dickinson) by counting 100′000 red blood cells. Activity is calculated as the difference between the mean value of the control group and treated groups expressed as a percent relative to the control group.

The subject of experiment [2] is erythrocytic stages of P. falciparum NF54. Put plainly: Plasmodium falciparum in vitro assay, [3H] hypoxanthine incorporation. It counts as cell-based. Particulars: Plasmodium falciparum, Erythrocyte, 72 h, P. falciparum NF54 in human red blood cells, 48 h + 24 h incubation. The method in brief: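 Cultures in human red blood cells (2.5% hematocrit, 0.3% parasitemia) were exposed to serially diluted compounds for 48 h at 37° C. under 4% CO2, 3% O2, 93% N2. [3H] hypoxanthine (0.5 μCi) was added for a further 24 h, incorporation counted by scintillation, and IC50 derived from sigmoidal inhibition curves.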

Setting [3] is: screening medium with Albumax (5 g/L), read-out: IC50 on NF54 (with Albumax).
The mark [4] stands for this setting: screening medium with human serum (50% final concentration), read-out: IC50 on NF54 (with 50% Serum).

SMILES strings stand for the structures. Where two headings read alike, the source gives them in different places.

For `CCCOc1ccc(C=CC(=O)N(Cc2ccc(N3CCN(C(C)=O)CC3)cc2)[C@@H](Cc2ccccc2)C(=O)N2CCN(Cc3ccccc3)CC2)cc1` [Example 8, (S)-N-[4-(4-Acetyl-piperazin-1-yl)-benzyl]-N-[1-benzyl-2-(4-benzyl-piperazin-1-yl)-2-oxo-ethyl]-3-(4-propoxy-phenyl)-acrylamide], the inhibition in vivo at 100 mg/kg in experiment [1] was found to be 99.4%. Further, the half-maximal inhibitory concentration (IC50) in experiment [2] (setting [3]) is 1.8 nM; in experiment [2] (setting [4]), 13.4 nM.
The like results for `CCCOc1ccc(C=CC(=O)N(Cc2ccc(N3CCN(C(C)=O)CC3)cc2)[C@@H](Cc2ccccc2)C(=O)N2CCN(Cc3ccc(N(C)C)cc3)CC2)cc1` [Example 18, (S)-N-[4-(4-Acetyl-piperazin-1-yl)-benzyl]-N-{1-benzyl-2-[4-(4-dimethylamino-benzyl)-piperazin-1-yl]-2-oxo-ethyl}-3-(4-propoxy-phenyl)-acrylamide] were, in that order, 99.1%, 2.5 nM and 11.8 nM.
The like results for `CCCOc1ccc(C=CC(=O)N(Cc2ccc(N3CCN(C(C)=O)CC3)cc2)[C@@H](Cc2ccccc2)C(=O)N2CCN(Cc3ccc(S(C)(=O)=O)cc3)CC2)cc1` [Example 46, (S)-N-[4-(4-Acetyl-piperazin-1-yl)-benzyl]-N-{1-benzyl-2-[4-(4-(methylsulfonyl)-benzyl)-piperazin-1-yl]-2-oxo-ethyl}-3-(4-propoxyphenyl)-acrylamide] were, in that order, 98.9%, 0.4 nM and 1.1 nM.
The like results for `CCOc1ccc(C=CC(=O)N(Cc2ccc(N3CCN(C(C)=O)CC3)cc2)[C@@H](Cc2ccccc2)C(=O)N2CCN(Cc3ccc(N(C)CCO)cc3)CC2)cn1` [Example 53, (S)-N-[4-(4-Acetyl-piperazin-1-yl)-benzyl]-N-[1-benzyl-2-(4-{4-[(2-hydroxy-ethyl)-methyl-amino]-benzyl}-piperazin-1-yl)-2-oxo-ethyl]-3-(6-ethoxy-pyridin-3-yl)-acrylamide] were, in that order, 52.3%, 4.3 nM and 12.4 nM.
For `CCOc1ccc(C=CC(=O)N(Cc2ccc(N3CCN(C(C)=O)CC3)cc2)[C@@H](Cc2ccccc2)C(=O)N2CCN(Cc3ccc(N(C)CCO)cc3)CC2)cc1` [Example 54, (S)-N-[4-(4-Acetyl-piperazin-1-yl)-benzyl]-N-[1-benzyl-2-(4-{4-[(2-hydroxy-ethyl)-methyl-amino]-benzyl}-piperazin-1-yl)-2-oxo-ethyl]-3-(4-ethoxy-phenyl)-acrylamide], the inhibition in vivo at 100 mg/kg in experiment [1] is 93.7%. In addition, the IC50 was found to be 1.6 nM in experiment [2] (setting [3]) and 5.9 nM in experiment [2] (setting [4]).
For `CC(=O)N1CCN(c2ccc(CN(C(=O)C=Cc3ccc(OC(F)F)cc3)[C@@H](Cc3ccccc3)C(=O)N3CCN(Cc4ccc(N(C)CCO)cc4)CC3)cc2)CC1` [Example 60, (S)-N-[4-(4-Acetyl-piperazin-1-yl)-benzyl]-N-[1-benzyl-2-(4-{4-[(2-hydroxy-ethyl)-methyl-amino]-benzyl}-piperazin-1-yl)-2-oxo-ethyl]-3-(4-difluoromethoxy-phenyl)-acrylamide], in experiment [1], the inhibition in vivo at 100 mg/kg was 78.3%. Further, the results for the IC50 in experiment [2] (setting [3]) and in experiment [2] (setting [4]) were 3 nM and 8.1 nM, respectively.
As for `CC(=O)N1CCN(c2ccc(CN(C(=O)C=Cc3ccc(C(F)(F)F)cc3)[C@@H](Cc3ccccc3)C(=O)N3CCN(Cc4ccccc4)CC3)cc2)CC1` [Example 1, (S)-N-[4-(4-Acetyl-piperazin-1-yl)-benzyl]-N-[1-benzyl-2-(4-benzyl-piperazin-1-yl)-2-oxo-ethyl]-3-(4-trifluoromethyl-phenyl)-acrylamide, reference compound], the inhibition in vivo at 100 mg/kg in experiment [1] is under 40%. Besides, the IC50 in experiment [2] (setting [3]) came to 5.1 nM; in experiment [2] (setting [4]), 27.6 nM.
Turning to `CCOc1ccc(C=CC(=O)N(Cc2ccc(N3CCN(C(C)=O)CC3)cc2)[C@@H](Cc2ccccc2)C(=O)N2CCN(Cc3ccc(Cl)cc3)CC2)cc1` [Example 35, (S)-N-[4-(4-Acetyl-piperazin-1-yl)-benzyl]-N-{1-benzyl-2-[4-(4-chloro-benzyl)-piperazin-1-yl]-2-oxo-ethyl}-3-(4-ethoxy-phenyl)-acrylamide], the inhibition in vivo at 100 mg/kg in experiment [1] was 98.7%. In addition, the results for the IC50 in experiment [2] (setting [3]) and in experiment [2] (setting [4]) were 2.9 nM and 9 nM, respectively.
Regarding `CC(=O)N1CCN(c2ccc(CN(C(=O)C=Cc3ccc(C(C)(C)C)cc3)[C@@H](Cc3ccccc3)C(=O)N3CCN(Cc4ccc(N(C)CCO)cc4)CC3)cc2)CC1` [Example 62, (S)-N-[4-(4-Acetyl-piperazin-1-yl)-benzyl]-N-[1-benzyl-2-(4-{4-[(2-hydroxy-ethyl)-methyl-amino]-benzyl}-piperazin-1-yl)-2-oxo-ethyl]-3-(4-tert-butyl-phenyl)-acrylamide], the inhibition in vivo at 100 mg/kg in experiment [1] was determined as 99.4%. Also, the IC50 was 0.7 nM in experiment [2] (setting [3]) and 3.2 nM in experiment [2] (setting [4]).
For `CC(=O)Nc1ccc(C=CC(=O)N(Cc2ccc(N3CCN(C(C)=O)CC3)cc2)[C@@H](Cc2ccccc2)C(=O)N2CCN(Cc3ccc(C#N)cc3)CC2)cc1` [Example 27, (S)-3-(4-Acetylamino-phenyl)-N-[4-(4-acetyl-piperazin-1-yl)-benzyl]-N-{1-benzyl-2-[4-(4-cyano-benzyl)piperazin-1-yl]-2-oxo-ethyl}-acrylamide], the inhibition in vivo at 100 mg/kg in experiment [1] was under 40%. The IC50 in experiment [2] (setting [3]) worked out at 1.8 nM; in experiment [2] (setting [4]), 12.9 nM.
For `CC(=O)N1CCN(c2ccc(CN(C(=O)C=Cc3ccc(S(C)(=O)=O)cc3)[C@@H](Cc3ccccc3)C(=O)N3CCN(Cc4ccc(N(C)CCO)cc4)CC3)cc2)CC1` [Example 55, (S)-N-[4-(4-Acetyl-piperazin-1-yl)-benzyl]-N-[1-benzyl-2-(4-{4-[(2-hydroxy-ethyl)-methyl-amino]-benzyl}-piperazin-1-yl)-2-oxo-ethyl]-3-(4-methanesulfonyl-phenyl)-acrylamide], in experiment [1], the inhibition in vivo at 100 mg/kg was under 40%. Moreover, the IC50 stood at 7.5 nM in experiment [2] (setting [3]) and 14.8 nM in experiment [2] (setting [4]).
In the case of `CC(=O)N1CCN(c2ccc(CN(C(=O)C=Cc3ccc(OC(C)C)cc3)[C@@H](Cc3ccccc3)C(=O)N3CCN(Cc4ccc(C#N)cc4)CC3)cc2)CC1` [Example 29, (S)-N-[4-(4-Acetyl-piperazin-1-yl)-benzyl]-N-{1-benzyl-2-[4-(4-cyano-benzyl)-piperazin-1-yl]-2-oxo-ethyl}-3-(4-isopropoxy-phenyl)-acrylamide], the inhibition in vivo at 100 mg/kg in experiment [1] was found to be 99.2%. Besides, the IC50 in experiment [2] (setting [3]) is 1.1 nM; in experiment [2] (setting [4]) it was 3.7 nM.
The like results for `CCS(=O)(=O)c1ccc(CN2CCN(C(=O)[C@H](Cc3ccccc3)N(Cc3ccc(N4CCN(C(C)=O)CC4)cc3)C(=O)C=Cc3ccc(C(F)(F)F)cc3)CC2)cc1` [Example 49, (S)-N-(4-(4-acetylpiperazin-1-yl)benzyl)-N-(1-(4-(4-(ethylsulfonyl)benzyl)piperazin-1-yl)-1-oxo-3-phenylpropan-2-yl)-3-(4-(trifluoromethyl)phenyl)acrylamide] were, in that order, 98.6%, 0.8 nM and 3.1 nM.
On to `CC(=O)N1CCN(c2ccc(CN(C(=O)C=Cc3ccc(OC(C)C)cc3)[C@@H](Cc3ccccc3)C(=O)N3CCN(Cc4ccccc4)CC3)cc2)CC1` [Example 9, (S)-N-[4-(4-Acetyl-piperazin-1-yl)-benzyl]-N-[1-benzyl-2-(4-benzyl-piperazin-1-yl)-2-oxo-ethyl]-3-(4-isopropoxy-phenyl)-acrylamide], for which, in experiment [1], the inhibition in vivo at 100 mg/kg is 99.1%. The IC50 came to 2.4 nM in experiment [2] (setting [3]) and 7.3 nM in experiment [2] (setting [4]).
Regarding `CC(=O)N1CCN(c2ccc(CN(C(=O)C=Cc3ccc(OC(F)F)cc3)[C@@H](Cc3ccccc3)C(=O)N3CCN(Cc4ccc(Cl)cc4)CC3)cc2)CC1` [Example 41, (S)-N-[4-(4-Acetyl-piperazin-1-yl)-benzyl]-N-{1-benzyl-2-[4-(4-chloro-benzyl)-piperazin-1-yl]-2-oxo-ethyl}-3-(4-difluoromethoxy-phenyl)-acrylamide], the inhibition in vivo at 100 mg/kg in experiment [1] turned out to be 71%. The concentration for half-maximal inhibition (IC50) was 2.9 nM in experiment [2] (setting [3]) and 12.5 nM in experiment [2] (setting [4]).
The like results for `CCc1ccc(C=CC(=O)N(Cc2ccc(N3CCN(C(C)=O)CC3)cc2)[C@@H](Cc2ccccc2)C(=O)N2CCN(Cc3ccc(C#N)cc3)CC2)cc1` [Example 30, (S)-N-[4-(4-Acetyl-piperazin-1-yl)-benzyl]-N-{1-benzyl-2-[4-(4-cyano-benzyl)-piperazin-1-yl]-2-oxo-ethyl}-3-(4-ethyl-phenyl)-acrylamide] were, in that order, 97.7%, 0.9 nM and 5 nM.
For `CCc1ccc(C=CC(=O)N(Cc2ccc(N3CCN(C(C)=O)CC3)cc2)[C@@H](Cc2ccccc2)C(=O)N2CCN(Cc3ccc(N(C)C)cc3)CC2)cc1` [Example 20, (S)-N-[4-(4-Acetyl-piperazin-1-yl)-benzyl]-N-{1-benzyl-2-[4-(4-dimethylamino-benzyl)-piperazin-1-yl]-2-oxo-ethyl}-3-(4-ethyl-phenyl)-acrylamide] the same measures were 98.5%, 1.2 nM and 7.1 nM.
